Columns and labels:
HT1080 xenografts [1] = experiment: HT1080 xenograft selectivity studies: tumor size; assay type: in vivo, athymic nude mice
Protocol: In all of these experiments, HT1080 cells (5×10^6 cells/mouse) were implanted subcutaneously in male athymic nude mice. When tumors had become established, mice were divided into groups (10 mice/group). […] Tumor size was measured by calipers at the beginning and end of treatment. At the completion of Compound administration, the mice were sacrificed, and excised tumors were assayed by ELISA for intratumoral VEGF or other angiogenic factors using methods analogous to those described in Section 9.1.1.1.

[2] = test system: soluble VEGF121 and VEGF165 isoforms; experiment: Inhibition of soluble VEGF production in human tumor cell lines (ELISA, EC50); assay type: cell-based
Protocol: Study Design. […] In these experiments, cultures were established under normoxic conditions (21% oxygen). […] Cells requiring induction of VEGF production were incubated under hypoxic conditions (1% oxygen). At the completion of treatment, the conditioned media were collected and assayed by ELISA (as described in Section 9.1.1.1) for soluble VEGF121 and VEGF165 isoforms; results were calculated as percentage inhibition relative to vehicle treated controls. EC50 values were calculated from the dose concentration response curves.

[3] = Oral pharmacokinetics in mice; assay type: in vivo
Protocol: The pharmacokinetic evaluations in mice were adjuncts to the primary pharmacodynamic xenograft studies. The evaluations in rats included toxicokinetic assessments in single-dose, 7-day, and 28-day toxicology studies as well as a mass-balance study after a single oral dose of ^14C-Compound #10. The evaluations in dogs included toxicokinetic assessments in 7-day and 28-day toxicology studies. In the studies performed, rodents were dosed once daily with Compound #10 formulated in vehicle and administered via oral gavage.

[4] = test system: human VEGF121 and VEGF165; experiment: HT1080 xenograft dose response: intratumoral and pathologic plasma human VEGF ELISA; assay type: in vivo
Protocol: (§1) Experimental Study Design. HT1080 cells (5×10^6 cells/mouse) were implanted subcutaneously in male athymic nude mice.
(§2) Tumor size was measured using calipers at periodic intervals during the study (data shown in Section 9.2.2). […] The study was ended after 18 days, when the vehicle treated tumors reached a mean volume of ˜1755 mm^3. […] Mice were sacrificed, and excised tumors were homogenized in buffer containing protease inhibitors. Both terminal intratumoral and pathologic plasma human VEGF levels were measured using an ELISA that recognizes human VEGF121 and VEGF165 (as described in Section 9.1.1.1). Intratumoral VEGF levels were normalized to the total tumor protein concentration, while pathologic plasma human VEGF levels were expressed in pg/mL of plasma.

HT1080 xenografts [5] = experiment: HT1080 xenograft dose response: tumor growth; assay type: in vivo, athymic nude mice; conditions: 18 days
Protocol: as §1, §2
Experimental Design. The experimental design was reported in Section 9.1.2.2.

[6] = test system: normal human keratinocyte; experiment: ATP viability assay in keratinocytes; assay type: cell-based; conditions: any concentration tested
Protocol: Experimental Design. Nontransformed normal human keratinocyte cell cultures were established under normoxic conditions (21% oxygen). […] At the completion of treatment, cells were assessed for viability with an ATP assay and conditioned media were evaluated for VEGF protein levels by ELISA (as described in Section 9.1.1.1).

CYP2C9 = biological target: T1, CYP2C9 (Homo sapiens, UniProt P11712); experiment: CYP inhibition: CYP2C9; assay type: in vitro ADME; conditions: human hepatic microsomes or recombinant isoenzymes
T1 construct: host or cells: human hepatic microsomes or recombinant isoenzyme (not distinguished)
T1 sequence (P11712 whole entry): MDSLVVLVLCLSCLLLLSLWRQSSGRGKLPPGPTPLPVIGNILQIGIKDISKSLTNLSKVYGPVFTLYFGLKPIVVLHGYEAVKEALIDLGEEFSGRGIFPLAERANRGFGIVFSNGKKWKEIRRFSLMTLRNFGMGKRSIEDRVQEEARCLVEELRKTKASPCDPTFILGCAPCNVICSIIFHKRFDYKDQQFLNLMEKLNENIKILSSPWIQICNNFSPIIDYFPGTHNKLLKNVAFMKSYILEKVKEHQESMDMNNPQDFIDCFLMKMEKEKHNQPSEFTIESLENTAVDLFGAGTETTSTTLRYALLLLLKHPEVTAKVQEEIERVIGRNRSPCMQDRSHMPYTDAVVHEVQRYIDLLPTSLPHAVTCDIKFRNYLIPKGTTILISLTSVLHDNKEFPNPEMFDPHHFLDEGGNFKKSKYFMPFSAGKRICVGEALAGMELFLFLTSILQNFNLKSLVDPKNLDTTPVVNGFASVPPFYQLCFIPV
Excerpt: It is possible that in certain clinical trial subjects, such agents may need to be adjusted for dosing or replaced by alternative agents that are not metabolized by CYP2D6, particularly when such agents may have a low therapeutic index.

HeLa cells = experiment: Cell Titer Glo cytotoxicity / cell viability assay in HeLa cells (CC50); assay type: cell-based, human; conditions: any concentration tested
Excerpt: A dose-response analysis may be performed using the ELISA assay and conditions described above. The conditions for the dose-response ELISA are analogous to those described above. A series of, e.g., seven different concentrations may be analyzed. In parallel, a dose-response cytotoxicity assay may be performed using Cell Titer Glo (Promega) under the same conditions as the ELISA to ensure that the inhibition of VEGF expression was not due to the cytotoxicity.
Experimental Design. HeLa (human cervical carcinoma) cell cultures were established under normoxic conditions (21% oxygen). HeLa cells increase VEGF production 4- to 5-fold in response to hypoxia. […] At the completion of treatment, the conditioned media were collected and the VEGF protein levels were assayed in an enzyme-linked immunosorbent assay (ELISA) with primary antibodies that recognize the soluble VEGF121 and VEGF165 isoforms (R & D Systems, Minneapolis, Minn., USA). To ensure that decreases in VEGF concentration were not due to cytotoxicity, cultures were assayed using a standard assay ([…]-GLO® Luminescent Cell Viability Assay; Promega, Madison, Wis., USA) that measures total cellular adenosine triphosphate (ATP) concentrations as an indicator of cell viability.

[7] = all Compound #10 dose groups (0.3-10 mg/kg, oral, 18 days)

COc1ccc(C2c3[nH]c4ccc(Cl)cc4c3CCN2C(=O)Oc2ccc(Cl)cc2)cc1 (racemic) [Compound #10]
Final mean Compound #10-treated tumor size (HT1080 xenografts [1]; Study 1: 1 mg/kg oral BID, 28 days): 450 mm^3
Final mean Compound #10-treated tumor size (HT1080 xenografts [1]; Study 2: 5 mg/kg oral BID, 7 days): 595 mm^3
Final mean Compound #10-treated tumor size (HT1080 xenografts [1]; Study 3: 5 mg/kg oral BID, 10 days): 735 mm^3
Final mean Compound #10-treated tumor size (HT1080 xenografts [1]; Study 4: 5 mg/kg oral BID, 9 days): 953 mm^3
Final mean Compound #10-treated tumor size (HT1080 xenografts [1]; Study 5: 5/50 mg/kg oral BID, 15 days): 1922 mm^3
Final mean Compound #10-treated tumor size (HT1080 xenografts [1]; Study 6: 5 mg/kg oral QD, 21 days): 750 mm^3
Final mean Compound #10-treated tumor size (HT1080 xenografts [1]; Study 7: 10 mg/kg oral QD, 42 days): 1770 mm^3
EC50 ([2]; A-375, Melanoma, A375, hypoxic (1% oxygen), 48 hours): 50 nM
EC50 ([2]; A-431, Epidermoid, A431, 48 hours): 10 nM
EC50 ([2]; Breast, MDA-MB-468, hypoxic (1% oxygen), 48 hours): 5 nM
EC50 ([2]; Cervical, HeLa, hypoxic (1% oxygen), 48 hours): 2 nM
EC50 ([2]; Colorectal, HCT-116, 48 hours): 10 nM
EC50 ([2]; Gastric, AGS, 48 hours): 0.1 nM
EC50 ([2]; Gastric, Kato III, hypoxic (1% oxygen), 48 hours): 10 nM
EC50 ([2]; HT-1080, Fibrosarcoma, HT1080, 48 hours): 10 nM
EC50 ([2]; Lung, A549, 48 hours): 50 nM
EC50 ([2]; Lung, Calu-6, hypoxic (1% oxygen), 48 hours): 7 nM
EC50 ([2]; Lung, NCI H460, 48 hours): 10 nM
EC50 ([2]; MDA-MB-231, 48 h): 5 nM
EC50 ([2]; Neuroblastoma, SY5Y, hypoxic (1% oxygen), 48 hours): 5 nM
EC50 ([2]; Pancreas, Capan-1, hypoxic (1% oxygen), 48 hours): 5 nM
EC50 ([2]; Prostate, LNCaP, hypoxic (1% oxygen), 48 hours): 15 nM
EC50 ([2]; Renal cell, HEK293, 48 hours): 10 nM
EC50 ([2]; SK-OV-3, Ovarian, SKOV3, hypoxic (1% oxygen), 48 hours): 10 nM
EC50 ([2]; SNU1, Gastric, SNU-1, 48 hours): 0.1 nM
Oral bioavailability [3]: orally bioavailable
concentration at 24 h ([3]; mouse, plasma, oral, 1-mg/kg dose level, Day 1, read-out: Plasma trough concentration at 24 hours): 100 to 150 ng/mL
Reduction in tumor and pathologic plasma human VEGF concentrations ([4]; 0.3 mg/kg BID): partial reductions
Pathologic human VEGF levels in plasma [4, 7]: significantly suppressed
Pathologic human VEGF levels in tumors [4, 7]: significantly suppressed
Reduction in tumor and pathologic plasma human VEGF concentrations ([4]; dose levels of ≧1 mg/kg BID): essentially maximal
Toxicity on observing the animals (HT1080 xenografts [5]; HT1080 xenograft mice): no overt toxicity
Dose levels at which maximum antitumor activity was observed (HT1080 xenografts [5]; HT1080 xenografts): ≥ 1 mg/kg BID
Toxicity (ATP viability) [6]: No toxicity was observed
Inhibition of CYP2C9 (CYP2C9): No meaningful inhibition
Cytotoxicity (cellular ATP) (HeLa cells): No cytotoxicity was observed
